Key:
Type in all cases: in vivo
Details in all cases: 21 days, 0 = no damage, 100 = complete destruction
Alopecurus myosuroides = assay: Greenhouse experiment, herbicidal activity, post-emergence method
Text: (§1) For the post-emergence treatment, the test plants were first grown to a height of 3 to 20 cm, depending on the plant habit, and only then treated. Here, the herbicidal compositions were suspended or emulsified in water as distribution medium and sprayed using finely distributing nozzles.
(§2) The respective components I and B and/or C were formulated as 10% by weight strength emulsion concentrate and introduced to the spray liquor with the amount of solvent system used for applying the active compound. In the examples, the solvent used was water.
(§3) The test period extended over 21 days. During this time, the plants were tended, and their response to the treatments with active compound was evaluated.
(§4) The evaluation for the damage caused by the chemical compositions was carried out using a scale from 0 to 100%, compared to the untreated control plants. Here, 0 means no damage and 100 means complete destruction of the plants.
(§5) In the examples below, the value E which is to be expected if the activity of the individual compounds is just additive was calculated using the method of S. R. Colby (1967) “Calculating synergistic and antagonistic responses of herbicide combinations”, Weeds 15, p. 22 ff. E=X+Y−(X·Y/100) where
(§6) X=effect in percent using active compound I at an application rate a;
(§7) Y=effect in percent using active compound B at an application rate b;
(§8) E=expected effect (in %) of I+B at application rates a+b.
(§9) If the value […] in this manner is higher than the value E calculated according to Colby, a synergistic effect is present.

Amaranthus retroflexus = assay: Greenhouse experiment, herbicidal activity, pre-emergence method
Procedure: as §2, §3, §4, §5, §6, §7, §8, §9

Echinocloa crus-galli = assay: Greenhouse experiment, herbicidal activity, post-emergence method
Text: as §1, §2, §3, §4, §5, §6, §7, §8, §9

[1] = application rate 1.95 g/ha of each active compound applied (mixture 1.95 + 1.95 g/ha)
[2] = application rate 0.98 g/ha of each active compound applied (mixture 0.98 + 0.98 g/ha)

Compound | Herbicidal activity against Alopecurus myosuroides, found (Alopecurus myosuroides; [1]) [%] | Herbicidal activity against Alopecurus myosuroides, found (Alopecurus myosuroides; application rate 3.91 g/ha of each active compound applied (mixture 3.91 + 3.91 g/ha)) [%] | Herbicidal activity against Amaranthus retroflexus, found (Amaranthus retroflexus; [2]) [%] | Herbicidal activity against Amaranthus retroflexus, found (Amaranthus retroflexus; [1]) [%] | Herbicidal activity against Echinocloa crus-galli, found (Echinocloa crus-galli; [2]) [%] | Herbicidal activity against Echinocloa crus-galli, found (Echinocloa crus-galli; [1]) [%]
4-Hydroxy-3-{[2-methoxyethoxy)methyl-6-(trifluormethyl)-3-pyridinyl]carbonyl}bicyclo[3.2.1]oct-3-en-2-one [B.2] | 0 | 0 |  |  |  | 
Cc1nc(C(F)(F)F)ccc1C(=O)C1=C(O)C2CCC(C2)C1=O (stereo not drawn) [B.1, 4-Hydroxy-3-{[2-methyl-6-(triflurmethyl)-3-pyridinyl]carbonyl}ci-cyclo[3.2.1]oct-3-en-2-one] |  |  | 0 | 20 | 30 | 60
